Article PMC9854712 (Antioxidants, 2023)

Key:
MDA-MB-231 cells = test: MTT cell viability assay, MDA-MB-231; assay type: cell-based; conditions: Homo sapiens, MDA-MB-231, 48 h, read-out: Cell growth % at 10 µM, MDA-MB-231
Description: (§1) The cell lines were obtained from the American Type Culture Collection (ATCC). Five tumor cell lines (MDA-MB-231, MCF-7, HCT116, HTB-54, and DU-145) and two non-tumorigenic cells (184B5 and BEAS-2B) were grown in RPMI 1640 medium (Gibco), and the HT-29 tumor cell line was grown in McCoy’s medium. Both mediums were supplemented with 10% fetal bovine serum (FBS; Gibco) and 1% antibiotics (10.00 units/mL penicillin and 10.00 μg/mL streptomycin; Gibco). Cells were preserved in tissue culture flasks at 37 °C and 5% CO2. The culture medium was replaced every three days.
(§2) The effect of each compound on cell viability was tested using the MTT assay. […] Selected compounds were then tested at seven different concentrations (0.5–100 μM) in MCF-7, HCT116, HT-29, HTB-54, 184B5 and BEAS-2B cells. Cells were seeded at 10^4 per well onto flat-bottomed 96-well culture plates. They were treated with either DMSO or increasing concentration of the corresponding compound for 48 h. Then, they were incubated with 20 μL of 3-(4,5-dimethylthiazol-2-yl)-2,5-diphenyltetrazolium bromide (MTT) (2 mg /mL stock; Aldrich) for 2,5 h and analyzed for their ability to generate a purple formazan dye. These formazan crystals were dissolved in 50 μL of DMSO. The absorbance was measured at a wavelength of 550 nm and the ratio of viable cells was calculated.
(§3) Results are expressed as cell viability % at 10 μM. Selectivity index were calculated as the ratio of the IC50 values determined for the non-malignant and the tumor cells in breast (IC50 (184B5)/IC50 (MCF-7)) and lung (IC50 (BEAS-2B)/IC50 (HTB-54)) cell lines. Data were obtained from at least three independent experiments performed in triplicates.

[1] = tested on: NCI-H322M (non-small cell lung); test: NCI-60 Five-Dose assay, NCI-H322M; assay type: cell-based; conditions: Homo sapiens, 48 h
Description: Compounds 14a and 17a were submitted to the Developmental Therapeutics Program (DTP) of National Cancer Institute (NCI). Cytotoxicity activity was evaluated by performing One-Dose screening (10^−5 M) against a panel of 60 human tumor cell lines. […] Cells grew in the RPMI 1640 medium containing 5% fetal bovine serum and 2 mM L-glutamine and were inoculated into 96-well microtiter plates in 100 μL at plating densities ranging from 5.000 to 40.000 cells/well. The microtiter plates inoculated with cells were incubated at 37 °C, in 5% humidified CO2 for 24 h prior to addition of experimental drugs. Then, experimental drugs were added, and the microtiter plates were incubated for 48 h. The protocol is available on https://dtp.cancer.gov/discovery_development/nci-60/methodology.htm accessed on 31 December 2022.

[2] = tested on: HTB-54, DU-145, HT-29 and MDA-MB-231 cancer cell lines; test: cells; assay type: cell-based; conditions: against the panel of the four cancer cell lines
Description: as §1, §2
As a first approach, all the compounds were tested in vitro against lung (HTB-54), prostatic (DU-145), colon (HT-29), and triple-negative breast (MDA-MB-231) cancer cell lines at two concentrations (50 and 10 µM) for 48 h. Then, the MTT colorimetric assay was used to evaluate cell proliferation after the treatment. The data are expressed as the percentage of cell growth ± SD in at least three independent experiments performed in quadruplicates (Table S1).

HTB-54 cells = test: MTT cell viability assay, HTB-54; assay type: cell-based; conditions: for viability at 10 µM / IC50: HTB-54, 48 h, MTT; for viability at 10 µM: read-out: Cell growth % at 10 µM, HTB-54; for SI (lung): IC50 (BEAS-2B)/IC50 (HTB-54)
Description: as §1, §2, §3

[3] = tested on: HTB-54, HT-29, HCT116 and MCF-7 cancer cell lines; test: MTT IC50, all tested cancer cell lines; assay type: cell-based; conditions: 48 h
Description: as §1
as §2, with “calculated. […]” for “calculated.”

HT-29 cells = test: MTT cell viability assay, HT-29; assay type: cell-based; conditions: Homo sapiens; for viability at 10 µM: HT-29, 10 µM, 48 h, read-out: Cell growth % at 10 µM, HT-29; for IC50: HT-29, 48 h
Description: as §1, §2, §3

in vitro = test: in vitro
Description: Franz diffusion cells (Microette 8910130, Hanson Research) were employed to perform this assay. The compounds were dissolved in DMSO at 5 mg/mL and diluted to 500 µg/mL with phosphate-buffered saline (PBS)/EtOH (7:3) to make a stock solution. A total of 10 µL of porcine brain lipid (PBL) diluted in dodecane solution (20 mg/mL) was spread onto a PVDF membrane that was placed between the donor and acceptor compartments, forming a sandwich structure. Then, 4.5 mL of PBS/EtOH (7:3) was added to the acceptor compartment and 700 µL of the stock solution was added to the donor cell. […] The concentration of the compound was calculated from the standard curve and expressed as permeability (Pe) by the following formula [84]:Permeability (cm/s): Pe = {−ln [1 − CA(t)/Ceq]}/[A ∗ (1/VD + 1/VA) ∗ t]
A = filter area ([…]), VD = donor cell volume (0.7 mL), VA = acceptor cell volume (4.5 mL), t = incubation time, CA (t) = compound concentration in acceptor cell at time t, CD (t) = compound concentration in donor cell at time t, and Ceq = [CD(t) ∗ VD + […] ∗ VA]/(VD + VA).
Every sample was analyzed at least in duplicate and the data were reported as mean ± SD.

For C=CC[Se]C(=O)Cc1c(C)n(C(=O)c2ccc(Cl)cc2)c2ccc(OC)cc12 [Compound 17a, Se-allyl 2-[1-(4-chlorobenzoyl)-5-methoxy-2-methyl-1H-indol-3-yl]ethaneselenoate], the viability at 10 µM (MDA-MB-231 cells) was 26.5 ± 5.6%, the GI50 [1] was 0.42 µM and the viability at 10 µM [2] was under 55%. The viability at 10 µM (HTB-54 cells) was 21.9 ± 6.5%, the IC50 (HTB-54 cells) was 7.9 ± 1.9 µM and the “SI (lung)” value (HTB-54 cells) was 0.8. The IC50 [3] was under 10 µM, the viability at 10 µM (HT-29 cells) was 38.7 ± 6% and the IC50 (HT-29 cells) was 5.9 ± 0.8 µM.
With C=CC[Se]C(=O)c1ccccc1OC(C)=O [Compound 14a, 2-(allylselanylcarbonyl)phenylacetate] the viability at 10 µM (MDA-MB-231 cells) was 38.8 ± 3.6%, the Papp at 20 h, 500 µg/mL (in vitro; PAMPA) was 369 ± 1 nm/s and the “fold higher Pe compared to galantamine” value (in vitro; PAMPA-BBB) was 3 fold. For the same compound, the “Pe ± SD” value (in vitro; PAMPA-BBB, porcine brain lipid, 20 h, 25 °C) was 369.2 nm/s, the “BBB Permeation (Experimental)” value (in vitro; class from PAMPA-BBB Pe) was “High (High BBB permeation predicted; Pe (10^−6 cm s^−1) > 4.0)” and the GI50 [1] was 0.34 µM. It also gave a viability at 10 µM [2] of under 55%, a viability at 10 µM (HTB-54 cells) of 34.2 ± 6.2% and an IC50 (HTB-54 cells) of 9.9 ± 1.1 µM. For the same compound, the “SI (lung)” value (HTB-54 cells) was 0.7, the IC50 [3] was under 10 µM and the viability at 10 µM (HT-29 cells) was 53.9 ± 5.3%. It also gave an IC50 (HT-29 cells) of 6.4 ± 1 µM.
